Consider eight compounds from ChEMBL document CHEMBL2034878, “Chiral resolution, absolute configuration assignment and biological activity of racemic diarylpyrimidine CH(OH)-DAPY as potent nonnucleoside HIV-1 reverse transcriptase inhibitors” (Eur J Med Chem, 2012).

SMILES strings stand for the structures. Some results are limits rather than exact numbers.

Series [1] relates to Human immunodeficiency virus 1. Nature of the series: Antiviral activity against HIV1 RES056 harboring K103N/Y181C RT mutant infected in MT4 cells assessed as inhibition of virus-induced cytopathic effect after 5 days by MTT assay. It is filed as functional, organism-based. The note with it: Human immunodeficiency virus 1, RES056, MT4, 120 h.
Series [2] is described as follows: Cytotoxicity against human MT4 cells after 5 days by MTT assay. It is filed as cell-based.
Series [3] relates to Human immunodeficiency virus 1. Kind of series: Antiviral activity against HIV1 3B harboring wild type RT infected in MT4 cells assessed as inhibition of virus-induced cytopathic effect after 5 days by MTT assay. Format: functional, organism-based. The note with it: Human immunodeficiency virus 1, 3B, MT4, 120 h.
The subject of series [4] is Human immunodeficiency virus 2. Kind of series: Antiviral activity against HIV2 ROD […] infected in MT4 cells assessed as inhibition of virus-induced cytopathic effect after 5 days by MTT assay. It is filed as functional, organism-based. The note with it: Human immunodeficiency virus 2, ISOLATE ROD, MT4, 120 h.
A short description of series [5]: Selectivity index ratio of CC50 for human MT4 cells to EC50 for HIV1 3B. Format: toxicity, cell-based. The note with it: read-out: Ratio CC50/EC50.
For series [6], the target named is Human immunodeficiency virus type 1 reverse transcriptase (Human immunodeficiency virus 1, UniProt Q72547). Nature of the series: Inhibition of HIV1 wildtype reverse transcriptase using poly(rA)/oligo(dT)15 as template by colometric streptavidin alkaline phosphate reporter assay.

As to `O=C1Nc2ccc(Cl)cc2[C@@](C#CC2CC2)(C(F)(F)F)O1` [EFAVIRENZ], the EC50 in series [1] amounted to 0.44 µM. The CC50 at 120 h in series [2] was greater than 6.3 µM.

As to `Cc1cc(C#N)cc(C)c1Oc1nc(Nc2ccc(C#N)cc2)nc(N)c1Br` [ETRAVIRINE], the EC50 in series [3] was 0.002 µM; in series [4] it was greater than 28 µM. The compound further showed a CC50 at 120 h in series [2] of 28 µM.

As for `Cc1ccnc2c1NC(=O)c1cccnc1N2C1CC1` [NEVIRAPINE], in series [4], the EC50 is greater than 15 µM. Besides, the CC50 at 120 h in series [2] was greater than 15 µM.

For the compound `CC(C)Nc1cccnc1N1CCN(C(=O)c2cc3cc(NS(C)(=O)=O)ccc3[nH]2)CC1` [DELAVIRDINE], the concentration for a half-maximal effect (EC50) in series [1] is greater than 4.39 µM. Moreover, the cytotoxic concentration (CC50) at 120 h in series [2] is greater than 4.4 µM. The selectivity ratio in series [5] was greater than 274.

Take `N#Cc1ccc(Nc2nccc([C@H](O)c3ccccc3Cl)n2)cc1`: the 50% effective concentration (EC50) in series [3] was 0.005 µM; in series [1] it was greater than 36 µM; in series [4], greater than 36 µM. The compound also registered a CC50 at 120 h in series [2] of 36 µM. In series [5], the selectivity ratio worked out at 6800.

For `Cc1cn([C@H]2C[C@H](N=[N+]=[N-])[C@@H](CO)O2)c(=O)[nH]c1=O` [ZIDOVUDINE], the concentration for a half-maximal effect (EC50) in series [4] turned out to be 0.007 µM. Further, in series [2], the CC50 at 120 h is no less than 46 µM. Besides, in series [5], the selectivity ratio is no less than 6360.

`N#Cc1ccc(Nc2nccc([C@@H](O)c3ccccc3Cl)n2)cc1`: the figures for the EC50 in series [3], in series [1] and in series [4] were 0.065 µM, 8.8 µM and 11 µM, respectively. This compound displayed a 50% cytotoxic concentration (CC50) at 120 h in series [2] of 25 µM. Moreover, the selectivity ratio in series [5] was 373.

On to `N#Cc1ccc(Nc2nccc(C(O)c3ccccc3Cl)n2)cc1` (racemic), for which the EC50 came out at 9.4 µM in series [1] and 7.6 µM in series [4]. The compound also returned a CC50 at 120 h in series [2] of 29 µM. In addition, the selectivity ratio in series [5] worked out at 3230. This compound also gave a 50% inhibitory concentration (IC50) in series [6] of 0.45 µM.
